Measured values taken from patent US20240051931A1, “HDAC INHIBITORS” (University of Pittsburgh - Of the Commonwealth System of …, priority 2020, published 2024).

Columns and labels:
HDAC 6 = biological target: T1, HDAC 6 (Homo sapiens, UniProt Q9UBN7); experiment: HDAC 6 activity at fixed concentration (Table 2); assay type: biochemical; design: unit not given here; details: compound at 50 nM
T1 sequence (Q9UBN7 1-1215): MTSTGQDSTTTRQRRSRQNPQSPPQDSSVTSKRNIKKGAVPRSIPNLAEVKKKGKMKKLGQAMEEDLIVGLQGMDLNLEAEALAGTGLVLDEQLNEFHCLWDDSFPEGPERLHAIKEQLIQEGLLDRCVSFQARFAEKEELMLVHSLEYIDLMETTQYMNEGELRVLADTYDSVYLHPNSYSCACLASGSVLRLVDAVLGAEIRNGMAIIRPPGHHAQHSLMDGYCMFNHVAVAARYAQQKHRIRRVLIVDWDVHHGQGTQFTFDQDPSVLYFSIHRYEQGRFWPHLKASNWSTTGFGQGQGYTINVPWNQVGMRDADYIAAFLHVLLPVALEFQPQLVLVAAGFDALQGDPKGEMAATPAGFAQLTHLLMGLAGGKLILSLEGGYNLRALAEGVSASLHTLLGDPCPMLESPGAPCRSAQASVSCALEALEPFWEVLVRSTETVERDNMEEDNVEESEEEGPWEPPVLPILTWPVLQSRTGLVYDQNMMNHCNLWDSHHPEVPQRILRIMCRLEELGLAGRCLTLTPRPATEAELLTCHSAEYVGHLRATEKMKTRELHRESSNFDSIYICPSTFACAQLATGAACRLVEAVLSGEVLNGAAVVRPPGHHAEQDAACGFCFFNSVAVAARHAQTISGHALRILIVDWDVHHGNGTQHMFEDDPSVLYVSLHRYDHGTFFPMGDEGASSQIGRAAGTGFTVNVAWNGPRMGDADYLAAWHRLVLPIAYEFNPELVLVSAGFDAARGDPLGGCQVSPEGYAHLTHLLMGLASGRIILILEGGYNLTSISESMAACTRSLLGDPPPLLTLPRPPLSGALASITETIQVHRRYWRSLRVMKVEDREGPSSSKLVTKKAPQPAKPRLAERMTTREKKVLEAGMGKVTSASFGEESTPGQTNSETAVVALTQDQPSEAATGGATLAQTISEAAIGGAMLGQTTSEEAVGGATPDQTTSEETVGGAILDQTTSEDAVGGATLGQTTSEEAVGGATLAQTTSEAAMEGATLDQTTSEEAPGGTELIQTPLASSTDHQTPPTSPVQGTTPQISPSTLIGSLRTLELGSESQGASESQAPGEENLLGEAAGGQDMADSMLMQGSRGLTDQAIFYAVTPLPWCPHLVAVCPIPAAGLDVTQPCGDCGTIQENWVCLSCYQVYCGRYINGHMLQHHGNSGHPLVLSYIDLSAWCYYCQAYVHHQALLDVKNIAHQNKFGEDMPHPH

PanHDAC = PanHDAC activity at fixed concentration (Table 2); assay type: biochemical; design: unit not given here; details: compound at 1 uM

Compound | HDAC 6 at 50 nM (HDAC 6) | PanHDAC at 1 uM (PanHDAC)
O=C(NO)[C@@H]1CCc2ccccc2O1 [Compound 1-3] | 46 | 0
O=C(Nc1ccc2c(c1)CC[C@@H](C(=O)NO)O2)c1cc(Cl)cc(Cl)c1 [Compound 1-26] | 20 | 0
O=C(NO)C1CCc2cc(C#CCOc3ccc(F)cc3)ccc2O1 (stereo not shown) [Compound 1-10] | 42 | 0
C#Cc1ccc2c(c1)CCC(C(=O)NO)O2 (stereo not shown) [Compound 1-11] | 25 | 3
O=C(NO)[C@@H]1CCc2ccc(-c3ccc(Cl)c(Cl)c3)cc2O1 [Compound 1-61] | 41 | 0
COc1ccccc1COc1ccc2c(c1)OC(C(=O)NO)CC2 (stereo not shown) [Compound 1-47] | 53 | 0
COc1ccc(C(=O)Nc2ccc3c(c2)CCC(C(=O)NO)O3)cc1 (stereo not shown) [Compound 1-5] | 29 | 0
O=C(Cc1c[nH]c2ccccc12)Nc1ccc2c(c1)CCC(C(=O)NO)O2 (stereo not shown) [Compound 1-41] | 55 | 0
CO[C@@H]1C[C@@H](C(=O)NO)Oc2ccccc21 [Compound 1-29] | 37 | 0
O=C(NCc1ccc(Cl)c(C(F)(F)F)c1)Nc1ccc2c(c1)CCC(C(=O)NO)O2 (stereo not shown) [Compound 1-15] | 26 | 0
O=C(NO)C1CCc2cccc(NS(=O)(=O)CC(F)(F)F)c2O1 (stereo not shown) [Compound 1-31] | 41 | 0
O=C(NO)[C@@H]1CCc2ccc(-c3ccc(F)c(Cl)c3)cc2O1 [Compound 1-64] | 47 | 3
O=C(NCc1cccc(S(F)(F)(F)(F)F)c1)Nc1ccc2c(c1)CCC(C(=O)NO)O2 (stereo not shown) [Compound 1-43] | 34 | 0
CS(=O)(=O)Nc1cccc2c1OC(C(=O)NO)CC2 (stereo not shown) [Compound 1-37] | 2 | 6
O=C(NO)C1CCc2ccc(OCc3ccc(C(F)(F)F)cc3)cc2O1 (stereo not shown) [Compound 1-20] | 32 | 0
O=C(NCCc1c[nH]c2ccccc12)Nc1cccc2c1OC(C(=O)NO)CC2 (stereo not shown) [Compound 1-36] | 6 | 0
O=C(NO)C1CCc2cc(-c3ccc(-c4ccccc4)cc3)ccc2O1 (stereo not shown) [Compound 1-23] | 50 | 0
O=C(NO)C1CCc2cc(CCCOc3ccc(F)cc3)ccc2O1 (stereo not shown) [Compound 1-7] | 35 | 0
O=C(NO)[C@H]1CCc2ccccc2O1 [Compound 1-4] | 47 | 0

Compound | HDAC 6 at 50 nM (HDAC 6) | PanHDAC at 1 uM (PanHDAC)
O=C(NO)C1CCc2ccc(O)cc2O1 (stereo not shown) [Compound 1-17] | 40 | 0
Cn1ccc2cc(-c3ccc4c(c3)CCC(C(=O)NO)O4)ccc21 (stereo not shown) [Compound 1-28] | 44 | 0
Cc1ccc(S(=O)(=O)Nc2cccc3c2OC(C(=O)NO)CC3)cc1 (stereo not shown) [Compound 1-38] | 21 | 0
O=C(NO)[C@@H]1CCc2ccc(OCc3ccccc3Cl)cc2O1 [Compound 1-65] | 17 | 0
O=C(NO)C1CCc2cc(C#CCCC(=O)N3CCc4ccccc4C3)ccc2O1 (stereo not shown) [Compound 1-19] | 27 | 0
COc1ccc(COC(=O)Nc2ccc3c(c2)CCC(C(=O)NO)O3)cc1 (stereo not shown) [Compound 1-32] | 70 | 14
O=C(NO)C1CCc2cccc(NS(=O)(=O)c3cccc4ccccc34)c2O1 (stereo not shown) [Compound 1-35] | 0 | 0
O=C(NO)C1CCc2ccc(OCCOc3ccc(F)cc3)cc2O1 (stereo not shown) [Compound 1-25] | 0 | 0
O=C(NO)C1CCc2ccc(-c3ccc(Cl)c(Cl)c3)cc2O1 (stereo not shown) [Compound 1-54] | 39 | 0
O=C(COc1ccc(Cl)c(Cl)c1)Nc1cccc2c1OC(C(=O)NO)CC2 (stereo not shown) [Compound 1-45] | 0 | 0
O=C(NO)C1CCc2cc(-c3ccc(Cl)c(Cl)c3)ccc2O1 (stereo not shown) [Compound 1-21] | 73 | 0
O=C(NO)C1CCc2cc(Cl)ccc2O1 (stereo not shown) [Compound 1-1] | 33 | 0
O=C(Nc1cccc2c1O[C@H](C(=O)NO)CC2)OCc1ccc(Cl)cc1 [Compound 1-62] | 32 | 0
O=C(Nc1cccc2c1O[C@@H](C(=O)NO)CC2)OCc1ccccc1Cl [Compound 1-34] | 13 | 0
O=C(NO)[C@@H]1CCc2ccc(OCc3ccc(Cl)cc3)cc2O1 [Compound 1-59] | 0 | 0
C[C@@H]1Cc2ccccc2O[C@@H]1C(=O)NO [Compound 1-22] | 0 | 0
O=C(Nc1ccc2c(c1)CCC(C(=O)NO)O2)OCc1ccccc1Cl (stereo not shown) [Compound 1-33] | 32 | 0
Cn1ccc2cc(-c3ccc4c(c3)OC(C(=O)NO)CC4)ccc21 (stereo not shown) [Compound 1-55] | 44 | 0
O=C(Nc1ccc2c(c1)CCC(C(=O)NO)O2)OCc1ccccc1 (stereo not shown) [Compound 1-9] | 50 | 0

Compound | HDAC 6 at 50 nM (HDAC 6) | PanHDAC at 1 uM (PanHDAC)
O=C(NO)[C@H]1CCc2ccc(OCc3ccc(Cl)cc3)cc2O1 [Compound 1-58] | 31 | 0
O=C(Nc1ccc(F)cc1)Nc1cccc2c1OC(C(=O)NO)CC2 (stereo not shown) [Compound 1-40] | 30 | 0
O=C(Nc1ccc2c(c1)CCC(C(=O)NO)O2)c1ccc(S(F)(F)(F)(F)F)cc1 (stereo not shown) [Compound 1-6] | 41 | 0
O=C(Nc1cccc2c1OC(C(=O)NO)CC2)OCc1ccc(C(F)(F)F)cc1 (stereo not shown) [Compound 1-42] | 14 | 0
O=C(Nc1cccc2c1OC(C(=O)NO)CC2)OCc1ccccc1 (stereo not shown) [Compound 1-8] | 0 | 0
CN1CC(C(=O)NO)Oc2ccccc21 (stereo not shown) [Compound 1-27] | 31 | 0
O=C(Nc1cccc2c1OC(C(=O)NO)CC2)OCc1ccccc1Cl (stereo not shown) [Compound 1-13] | 23 | 0
O=C(COc1ccccc1Cl)Nc1cccc2c1O[C@H](C(=O)NO)CC2 [Compound 1-53] | 25 | 0
O=C(NO)C1CCc2cc(NS(=O)(=O)c3cccc4ccccc34)ccc2O1 (stereo not shown) [Compound 1-51] | 64 | 8
O=C(Nc1ccc2c(c1)CC[C@@H](C(=O)NO)O2)c1ccc(-c2ccccc2)cc1 [Compound 1-57] | 7 | 0
O=C(Nc1ccc(F)cc1)Nc1ccc2c(c1)CCC(C(=O)NO)O2 (stereo not shown) [Compound 1-46] | 48 | 0
O=C(NO)C1CCc2cc(-c3ccc(F)cc3)ccc2O1 (stereo not shown) [Compound 1-18] | 68 | 0
O=C(NO)C1CCc2ccc(OCc3ccccn3)cc2O1 (stereo not shown) [Compound 1-24] | 23 | 0
O=C(NO)C1CCc2ccc(OCc3ccc(F)cc3)cc2O1 (stereo not shown) [Compound 1-48] | 0 | 0
COc1cccc(COC(=O)Nc2cccc3c2O[C@H](C(=O)NO)CC3)c1 [Compound 1-60] | 33 | 0
O=C(NO)C1CCc2cccc(NS(=O)(=O)c3ccc(F)cc3)c2O1 (stereo not shown) [Compound 1-2] | 5 | 0
O=C(Nc1cccc2c1O[C@H](C(=O)NO)CC2)OCc1ccc(Cl)c(Cl)c1 [Compound 1-63] | 45 | 0
COc1ccc(-c2ccc3c(c2)OC(C(=O)NO)CC3)cc1 (stereo not shown) [Compound 1-56] | 13 | 0
